In one assay the target is aggrecanase. Put plainly: Effect on the aggrecanase in synovial fluids or on preparations of recombinant ADAMTS protein (BC-3 ELISA, Agg1mut substrate). Format: biochemical. The procedure:
Effect of the carboxyl-reduced derivatives on the aggrecanase in synovial fluids or on preparations of recombinant ADAMTS protein.
The analysis is carried out on 96-well plates.
In each well, a fixed volume of synovial fluid or aggrecanase activity generating a known increase, between 1.0 and 1.4 absorbance units (405 nm), under the conditions of the analysis, is mixed with 3 μl of solution of compound from the respective dilution step. Dulbecco's modified Eagle's medium (DMEM) is added to each well to give a final volume of 300 μl. The plate is then incubated for 1 hour at 37° C. in a carbon dioxide atmosphere.
After the addition of 5 μl of a solution of […] of recombinant substrate Agglmut in DMEM to each well (substrate as described by Bartnik E. et al., EP 785274, 1997), the reagent mixture is incubated for 4 hours at 37° C. under a carbon dioxide atmosphere.
In a first step, the microplate is coated with 100 μl per well of a commercial goat anti-mouse IgG antibody for 1 hour at ambient temperature (5 μg/ml in a phosphate buffered saline solution, pH 7.4 [PBS buffer]). After washing with the PBS buffer containing 0.1% of Tween-20 (washing buffer), the wells are blocked by means of a step consisting of a one hour incubation with 100 μl per well of 5% bovine serum albumin in a PBS buffer containing 0.05% of Tween-20. Following another rinse with the washing buffer, each well is incubated with 100 μl of a solution, diluted to 1:1000, of BC-3 antibody in a PBS buffer containing 0.05% of Tween 20 and 0.5% of bovine serum albumin, at ambient temperature for one hour. This antibody recognizes the typical aggrecanase cleavage fragments (Hughes C. E. et al., Biochem. J. 305 (3), 799-804, 1995).
After another rinse of the analytical plate with the washing buffer, the complete set of mixtures originating from the preceding digestion is transferred to this plate, well by well, and incubated at ambient temperature for one hour. The plate is again washed as above. Next, 100 μl of the second antibody (anti-human IgG antibody labeled with peroxidase, 1:1000 in PBS containing 0.5% of BSA and 0.05% of Tween-20) are added to each well, with subsequent incubation at ambient temperature again for one hour. After a final rinse with the washing buffer, the color development is initiated by adding 100 μl of ABTS substrate solution (2 mg/ml, 2,2′-azinobis(3-ethyl-benzothiazoline)sulfonic acid) in 40 mM of sodium citrate plus 60 mM of disodium hydrogen phosphate, adjusted to a pH of 4.4 by adding acetic acid; 0.25 μl of 35% hydrogen peroxide added per ml immediately before measurement). […] The development is stopped as soon as the maximum signal (405 nm) in the absorbance range of 1.0 to 1.4 is reached.
On the technique in general: ELISA stands for enzyme-linked immunosorbent assay.

In assay [1] the target is T1, bovine factor Xa (Bos taurus, UniProt P00743). As to conditions: calibrated against Enoxaparin. How it is done: For the calibration, a standard sample of low molecular weight heparin (Enoxaparin) was used as reference.
T1 sequence (P00743 234-492 limits assumed): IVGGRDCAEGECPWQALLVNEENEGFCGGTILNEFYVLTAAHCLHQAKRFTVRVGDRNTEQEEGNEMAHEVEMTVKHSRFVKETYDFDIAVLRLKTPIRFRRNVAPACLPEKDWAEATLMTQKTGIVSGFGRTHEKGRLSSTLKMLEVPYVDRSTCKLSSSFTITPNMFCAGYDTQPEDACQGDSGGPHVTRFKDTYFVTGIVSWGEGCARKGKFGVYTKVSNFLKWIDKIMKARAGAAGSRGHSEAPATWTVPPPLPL
The serial dilutions of the assay compound are prepared in a 0.046 M Tris buffer, pH 8.4, containing 0.15 M NaCl, 0.007 M EDTA, 0.1% of Tween 80 and 0.12 IU/ml of human antithrombin III. The samples of 50 μl of the respective dilutions are incubated with 50 μl of bovine factor Xa (13.6 U/ml) at 37° C. for 80 seconds. Next, 50 μl of chromogenic substrate, 1.1 mM S-2765, are added. […] The activity of the deblocked factor Xa is indicated by the emission of p-nitroaniline from the substrate.

The target in assay [2] is T2, human neutrophil elastase (Homo sapiens, UniProt P08246).
T2 sequence (P08246 30-267): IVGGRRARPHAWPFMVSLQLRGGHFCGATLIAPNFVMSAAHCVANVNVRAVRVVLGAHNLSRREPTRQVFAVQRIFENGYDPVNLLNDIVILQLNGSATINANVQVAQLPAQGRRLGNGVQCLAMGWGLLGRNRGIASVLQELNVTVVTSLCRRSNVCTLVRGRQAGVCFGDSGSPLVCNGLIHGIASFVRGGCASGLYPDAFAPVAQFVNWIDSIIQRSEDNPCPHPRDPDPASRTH
Protocol: A commercially available enzyme (for example, human neutrophil elastase, sigma No. E8140) is reconstituted in aliquots of 0.1 mg per vial with 0.276 ml of 50 mM sodium acetate buffer, pH 5.5, containing 200 mM NaCl (stock solution of the enzyme); 11 μl of this stock solution are diluted with 1.1 ml of the HEPES buffer above (enzyme assay solution).
The substrate solution is prepared by dissolving 118 mg of methoxy-succinyl-L-Ala-L-Ala-L-Pro-L-Val-p-nitro-anilide in 1 ml of DMSO (stock solution, for example sigma No. M4765). In view of the application in the analysis, 9 μl of stock solution are then diluted in 1.19 ml of water.
The serial dilutions of the assay compounds are prepared in 100 mM of HEPES buffer containing 500 mM NaCl. The analysis is carried out on colorless 96-well polystyrene microplates (for example, Corning Costar, No. 3695).
10 μl of assay enzyme solution are mixed with 10 μl of the respective diluted compound solution and 10 μl of the substrate solution. After incubation for 15 min, the cleavage of the substrate is read as increase in absorbance at 405 nm.

In assay [3] the target is T1, bovine factor Xa. As to conditions: calibration reference; cited from earlier work.

The values below come from US20050203056A1, “Carboxyl-reduced derivatives of hyaluronic acid, preparation thereof, use thereof as a medicinal product and the pharmaceutical compositions containing them” (Aventis Pharma S.A., priority 2003, published 2005).

In the case of “Carboxyl-Reduced Hyaluronic Acid Sodium Salt [example 1]”, the “IC50 (μg/ml) for inhibition” value on aggrecanase is “no”. Moreover, the “% conversion” value in the assay with aggrecanase (glycosaminoglycan 0.0001 μg/ml), in the assay with aggrecanase (glycosaminoglycan 0.001 μg/ml), in the assay with aggrecanase (glycosaminoglycan 0.01 μg/ml), with aggrecanase (glycosaminoglycan 0.1 μg/ml), in the assay with aggrecanase (glycosaminoglycan 1 μg/ml) and in the assay with aggrecanase (glycosaminoglycan 10 μg/ml) was 100% in each case.

As a reminder, the IC50 is the concentration that inhibits the measured activity by half. Regarding “Carboxyl-Reduced and Persulfated Hyaluronic Acid Sodium Salt [example 3]”, on bovine factor Xa [1], the “factor Xa inhibitory activity” value was 1.75 U/mg. Besides, the “IC50 (μg/ml) for inhibition” value on aggrecanase came out at 0.025 µg/mL. Besides, the “% conversion” value in the assay on aggrecanase (glycosaminoglycan 0.0001 μg/ml) is on record as 93%; in the assay with aggrecanase (glycosaminoglycan 0.001 μg/ml), 84.9%; with aggrecanase (glycosaminoglycan 0.01 μg/ml), 54.3%; in the assay on aggrecanase (glycosaminoglycan 0.1 μg/ml), 28%; in the assay with aggrecanase (glycosaminoglycan 1 μg/ml), 27.4%; in the assay on aggrecanase (glycosaminoglycan 10 μg/ml), 21%. In assay [2], this substance yielded a concentration for half-maximal inhibition (IC50) of 7.0 µg/mL.

With Enoxaparin, the “factor Xa inhibitory activity of the reference standard” value on bovine factor Xa [3] was 100 U/mg.

Regarding hyaluronic acid [reference compound], in the assay with aggrecanase, the aggrecanase-inhibiting activity result is “no aggrecanase-inhibiting activity”.
